Reference: patent US20220354835A1, “COMPOUNDS FOR DEGRADING TAU PROTEIN AGGREGATES AND USES THEREOF” (Aprinoia Therapeutics Limited, priority 2019, published 2022)

Target: T1, Tau aggregates in P301L-Tau-FL-GFP HEK293 cells (Homo sapiens, UniProt P10636, P618L)
T1 construct: express full-length human tau T40 (2N4R) carrying the P301L mutation with a GFP tag; expressed in transfected cells
Test: Tau degradation assay (APNmAb005 ELISA-based Tau aggregation assay)
Assay type: cell-based
Conditions: 1 μM of compound, 24 hours, P301L-Tau-FL-GFP HEK293 cells seeded with rTg4510 brain lysate; read-out: Activity (reduction of tau aggregates)
Procedure: (A). Cell-based model of Tau inclusion formation: Six month old rTg4510 mouse brain lysates were used as the source of tau seeds, prepared as described in Example 26 above. P301L-Tau-FL-GFP HEK293 cells represent HEK293 cells express full-length human tau T40 (2N4R) carrying the P301L mutation with a GFP tag (P301L-Tau-FL-GFP). 1×10^6 of P301L-Tau-FL-GFP HEK293 cells were cultured on a 6-well plate in culture medium containing DMEM/F-12 (Gibco) supplemented with 10% fetal bovine serum (FBS) (Gibco), 1% Penicillin-Streptomycin (Gibco) and 0.5 mg/ml geneticin (Thermo Fisher Scientific) for 24 hours to reach 70-90% confluency, indicating the cells were ready for transfection. 50 μg of 6-month-old rTg4510 mouse brain lysate was diluted in 400 μL of serum free medium and mixed with 16 μL of lipofectamine 3000 reagent (Thermo Fisher Scientific) diluted in 400 μl of serum free medium. A solution mixture of rTg4510 brain lysate and lipofectamine 3000 was incubated at room temperature for 25 min. The culture media were removed, and then a solution mixture of rTg4510 lysate and lipofectamine 3000 was added to the cells for transfection. The solution mixture was incubated at room temperature for five hours, followed by medium change to 10% fetal bovine serum (FBS). After two-day incubation, Tau aggregates (Tau spots) were induced and images were acquired by ImageXpress Micro Confocal high-content imaging system (Molecular Devices) as described in Example 52 above. Analysis was performed by two customized modules in MetaXpress software (Molecular Devices) for aggregated tau analysis. Output included cell numbers, numbers of tau spots, average intensity of tau spots, and average size of tau spots.
(B). Compound treatment: 100 μL of 3×10^4 cells comprising Tau aggregates, prepared as described above in step (A), were plated on a 96-well plate coated with poly-D-lysine (BD Biosciences) and cultured for 24 hours. Compounds to be tested were dissolved in culture medium containing 0.1% DMSO. Each of test compounds in the concentration of 1, 0.2 and 0.04 μM was added to the cells comprising Tau aggregates and incubated at 37° C. for 24 hours. After that, culture medium was removed, cells were washed with PBS solution and then lysed using 30 μL of lysis buffer (PBS containing 0.3% Triton X-100 and 400 mM NaCl) for one hour at 4° C., and then cell lysate was diluted by 170 μl of PBS containing 400 mM NaCl. Cell lysate was filtrated by a […] filtration plate (Pall) and applied for Tau aggregation assay.
(C). Control cell lysate: control cell lysate was collected from non-seeded cells.
(D). ELISA-based Tau aggregation assay: APNmAb005 ELISA kit for Tau aggregation assay was designed and developed to detect abnormal tau aggregates in buffered solution or cell lysate by using anti-Tau APNmab005 as capture and detection antibody. This antibody is a highly specific antibody bound to human tau aggregates accumulated in mammalian cells. APNmAb005 is recited in PCT Patent Application No. PCT/M2020/057415, filed Aug. 5, 2020, which is incorporated herein by reference.
0.15 μg of APNmAb005 in 100 mM sodium carbonate buffer (pH 9.6) was coated on a high-binding polystyrene 96-well microplate (Greiner Bio-One) at 4° C. overnight. The microplate was washed with PBS followed by treatment with Intercept (PBS) blocking buffer (LI-COR) at room temperature for 2 hours. After that, the microplate was washed with PBS, and then the cell lysate with compound treatment, prepared as described above in step (C), was added into each well of the microplate and incubated at room temperature for 2 hours. The microplate was washed with PBS and then incubated with HRP-conjugated secondary antibody APNmAb005 at room temperature for 3 hours. HRP-conjugated secondary antibody APNmAb005 was prepared using HRP conjugation kit (Abcam,ab102890). The microplate was then washed with PBS and incubated with 100 μL of horseradish peroxidase (HRP) substrate at room temperature. […]

T1 sequence (P10636 1-441 isoform P10636-8 P301L): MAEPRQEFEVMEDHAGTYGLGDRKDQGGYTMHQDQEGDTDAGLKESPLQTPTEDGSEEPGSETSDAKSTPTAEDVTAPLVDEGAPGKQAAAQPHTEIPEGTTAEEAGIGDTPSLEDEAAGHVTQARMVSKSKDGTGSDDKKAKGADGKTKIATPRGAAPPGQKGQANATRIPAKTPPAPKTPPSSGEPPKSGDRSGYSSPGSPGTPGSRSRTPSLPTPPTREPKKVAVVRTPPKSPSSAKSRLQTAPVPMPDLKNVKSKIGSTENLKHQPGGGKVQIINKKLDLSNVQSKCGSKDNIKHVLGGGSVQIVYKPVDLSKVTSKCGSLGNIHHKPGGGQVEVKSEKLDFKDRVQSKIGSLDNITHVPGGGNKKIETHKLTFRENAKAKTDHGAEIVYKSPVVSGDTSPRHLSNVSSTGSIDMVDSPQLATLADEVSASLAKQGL

CN(C)c1ccc(-c2ccc(-c3nc4ccc(NCCOCCOc5ccc6c(c5)CN(C5CCC(=O)NC5=O)C6=O)cc4s3)cc2)cn1 (stereo not shown) [Compound 160313, 3-[6-[2-[2-[[2-[4-[6-(dimethylamino)pyridin-3-yl]phenyl]-1,3-benzothiazol-6-yl]amino]ethoxy]ethoxy]-3-oxo-1H-isoindol-2-yl]piperidine-2,6-dione]
inhibition at 1 µM: < 10%
